Some test systems named below: OVCAR-8; SN12C; 786-0; OVCAR-4; A498; NCI-H23; SW-620; A549; CCRF-CEM; TK-10; MDA-MB-435; HOP-62; Hs-578T; UACC-257; OVCAR-3; RXF 393; UACC-62; MOLT-4; COLO 205; DU-145.
Common to all, as to test: NCI-60 cell line screen, 48 h

The record followed here is ChEMBL document CHEMBL1201862, “PubChem BioAssay data set” (2004).

Structures are written as SMILES.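 In this assay, cells in 96-well plates receive the compound at five concentrations for 48 hours. Endpoints are linearly interpolated between the surrounding concentrations. Abbreviation: GI50, concentration required for 50% inhibition of growth.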 Activity calls are given as the source filed them. Rule as the data show it: active = GI50 up to about 1.1 µM and inactive = higher. Bounds are passed on as bounds.

For the compound `CN1CCCC2C(c3ccccc3)C(C3=NCCCC3)C(c3ccccc3)CC21` (stereo not given), the GI50 was 39.5 µM (inactive) in the assay with OVCAR-8; > 100 µM (inactive) with SN12C; 24.5 µM (inactive) with 786-0; 73.6 µM (inactive) with OVCAR-4; 42.6 µM (inactive) in the assay on A498; 64.7 µM (inactive) with NCI-H23. The GI50 is 48.6 µM (inactive) in the assay on SW-620; > 100 µM (inactive) in the assay on A549; 35.2 µM (inactive) with CCRF-CEM; > 100 µM (inactive) in the assay on TK-10; 19.5 µM (inactive) with MDA-MB-435; > 100 µM (inactive) in the assay on HOP-62. Also, the GI50 is 21.7 µM (inactive) in the assay with Hs-578T; 19.1 µM (inactive) in the assay on UACC-257; 35.6 µM (inactive) in the assay with OVCAR-3; 23.4 µM (inactive) with RXF 393; 17.8 µM (inactive) in the assay on UACC-62; 31.3 µM (inactive) in the assay on MOLT-4. Also, the GI50 in the assay with COLO 205 is 26.4 µM (inactive); with DU-145 it was > 100 µM (inactive).
`C1=CC2C=CC(C=C1)P2c1ccccc1` (stereo not given): the GI50 in the assay with OVCAR-8, with SN12C, with 786-0, in the assay on OVCAR-4, with A498 and in the assay on NCI-H23 was > 100 µM (inactive) throughout. For the same compound, the GI50 in the assay on SW-620, in the assay with A549, in the assay on CCRF-CEM, in the assay on TK-10, with MDA-MB-435 and in the assay with HOP-62 was > 100 µM (inactive) each time. Besides, the GI50 in the assay with Hs-578T, in the assay on UACC-257, with OVCAR-3, in the assay on RXF 393, with UACC-62 and in the assay with MOLT-4 was > 100 µM (inactive) in each case. The GI50 with COLO 205 and with DU-145 was > 100 µM (inactive) throughout.
With `COc1ccc(C(C)NNC(=O)c2ccncc2)c(OC)c1` (stereo not given), the GI50 in the assay on OVCAR-8, in the assay with SN12C, with 786-0, in the assay on OVCAR-4, in the assay on A498 and in the assay on NCI-H23 was > 100 µM (inactive) throughout. For the same compound, the GI50 with SW-620, with A549, in the assay with CCRF-CEM, in the assay on TK-10, in the assay on MDA-MB-435 and with HOP-62 was > 100 µM (inactive) throughout. Besides, the GI50 in the assay with Hs-578T, in the assay with UACC-257, in the assay with OVCAR-3, with RXF 393, in the assay with UACC-62 and in the assay with MOLT-4 was > 100 µM (inactive) in each case. In addition, the GI50 with COLO 205 and in the assay on DU-145 was > 100 µM (inactive) each time.
In the case of `C[n+]1cccc2ccc3cccnc3c21`, the GI50 in the assay on OVCAR-8 is 12.3 µM (inactive); in the assay on SN12C, 35.1 µM (inactive); in the assay on 786-0, 63.5 µM (inactive); in the assay on OVCAR-4, 33.8 µM (inactive); with A498 it was 32.5 µM (inactive); in the assay with NCI-H23 it was 18.2 µM (inactive). Also, the GI50 is 32.4 µM (inactive) in the assay on SW-620; 5.64 µM (inactive) in the assay with A549; > 100 µM (inactive) with CCRF-CEM; 27.5 µM (inactive) with TK-10; 69.2 µM (inactive) with MDA-MB-435; 19.5 µM (inactive) with HOP-62. Further, the GI50 in the assay with Hs-578T is 12.7 µM (inactive); in the assay on UACC-257, 41.9 µM (inactive); in the assay with OVCAR-3, 26.3 µM (inactive); in the assay on RXF 393, 46.3 µM (inactive); with UACC-62, 55.3 µM (inactive); in the assay on MOLT-4, > 100 µM (inactive). For the same compound, the results for the GI50 in the assay on COLO 205 and with DU-145 were 17.7 µM (inactive) and 49.9 µM (inactive), respectively.
Turning to `CCO/N=C\c1ccc2oc(-c3ccccc3)cc(=O)c2c1`, the GI50 with OVCAR-8 was 0.465 µM (active); in the assay on SN12C it was 0.303 µM (active); in the assay with 786-0 it was 0.501 µM (active); with OVCAR-4, 5.51 µM (inactive); in the assay with A498 it was 0.312 µM (active); in the assay with NCI-H23, 0.476 µM (active). The GI50 in the assay on SW-620 was 0.129 µM (active); in the assay with A549 it was 0.417 µM (active); in the assay with CCRF-CEM it was 0.228 µM (active); with TK-10 it was 2.26 µM (inactive); with MDA-MB-435, 0.0133 µM (active); in the assay on HOP-62, 0.46 µM (active). Further, the GI50 in the assay with Hs-578T was 0.402 µM (active); with UACC-257, 18.3 µM (inactive); in the assay on OVCAR-3, 0.0778 µM (active); in the assay on RXF 393, 0.261 µM (active); with UACC-62, 0.194 µM (active); in the assay with MOLT-4, 0.121 µM (active). The results for the GI50 with COLO 205 and in the assay with DU-145 were 0.0506 µM (active) and 0.502 µM (active), respectively.
With `COc1ccc(C(SCC(N)C(=O)O)(c2ccc(OC)cc2)c2ccc(OC)cc2)cc1` (stereo not given), the GI50 was 12.4 µM (inactive) with OVCAR-8; 12.7 µM (inactive) in the assay with SN12C; 13.4 µM (inactive) with 786-0; 13.8 µM (inactive) in the assay on OVCAR-4; 14.7 µM (inactive) in the assay on A498; 12.4 µM (inactive) in the assay on NCI-H23. The GI50 was > 10 µM (inactive) in the assay with SW-620; 17.1 µM (inactive) in the assay on A549; 13.7 µM (inactive) in the assay with CCRF-CEM; 14.9 µM (inactive) with TK-10; 2.97 µM (inactive) in the assay on MDA-MB-435; 13 µM (inactive) in the assay on HOP-62. Moreover, the GI50 was 12.2 µM (inactive) in the assay with Hs-578T; 11.9 µM (inactive) with UACC-257; 12.2 µM (inactive) with OVCAR-3; 8.47 µM (inactive) with RXF 393; 10.7 µM (inactive) with UACC-62; 12.6 µM (inactive) in the assay on MOLT-4. Besides, the GI50 in the assay on COLO 205 is 12.4 µM (inactive); with DU-145 it was > 10 µM (inactive).
Take `CCc1nc2ccc(NCCN(C)C)c3c(=O)c4ccccc4n1c23`: the GI50 is 0.515 µM (active) in the assay on OVCAR-8; 0.404 µM (active) in the assay on SN12C; 0.479 µM (active) with 786-0; 1.02 µM (active) in the assay on OVCAR-4; 2.54 µM (inactive) with A498; 1.16 µM (inactive) in the assay on NCI-H23. Further, the GI50 was 0.305 µM (active) in the assay with SW-620; 0.38 µM (active) with A549; 0.586 µM (active) with CCRF-CEM; 2.31 µM (inactive) in the assay on TK-10; 1 µM (active) in the assay with MDA-MB-435; 0.796 µM (active) in the assay with HOP-62. Also, the GI50 in the assay on Hs-578T is 1.78 µM (inactive); in the assay on UACC-257, 2.48 µM (inactive); in the assay with OVCAR-3, 0.979 µM (active); in the assay with RXF 393, 1.67 µM (inactive); with UACC-62, 2.14 µM (inactive); in the assay with MOLT-4, 0.175 µM (active). Further, the GI50 in the assay with COLO 205 is 0.307 µM (active); in the assay on DU-145, 0.656 µM (active).
Take `COc1ccc2c(c1)/C(=C\c1c(Cl)n(-c3ccccc3)c3ccccc13)C(=O)N2`: the GI50 in the assay on OVCAR-8 was 5.77 µM (inactive); in the assay on SN12C it was 13.6 µM (inactive); with 786-0, 8.45 µM (inactive); with OVCAR-4, 9.2 µM (inactive); with A498, 5.27 µM (inactive); in the assay with NCI-H23, 6.01 µM (inactive). Also, the GI50 in the assay on SW-620 is 4.75 µM (inactive); with A549 it was 4.34 µM (inactive); in the assay on CCRF-CEM, 3.85 µM (inactive); with TK-10, 15.5 µM (inactive); with MDA-MB-435, 1.64 µM (inactive); in the assay on HOP-62, 12.2 µM (inactive). Also, the GI50 is 0.479 µM (active) in the assay on Hs-578T; 8.97 µM (inactive) in the assay with UACC-257; 2.25 µM (inactive) with OVCAR-3; 2.45 µM (inactive) with RXF 393; 5.89 µM (inactive) with UACC-62; 2.23 µM (inactive) with MOLT-4. The GI50 in the assay with COLO 205 is 3.61 µM (inactive); with DU-145 it was 5.89 µM (inactive).
